# Reference: patent publication US20030032003A1, “IN VIVO SELECTION” (priority 2000, published 2003)
# What was measured:
# [1] = system: hyg^R transgenic mice C57BL/6J-TgN(pPWL512hyg)1Ems; experiment: Acute toxicity of hygromycin B, approximate lethal dose; assay type: in vivo, mouse; conditions: for body weight, percentage of the body weight before the experiment / survival: hyg^R, 10 days
# Description: (§1) The animals were kept in SPF conditions, supplied with standard diet and water ad libitum. The room was held at 22° C. with humidity 70% and 12 hours dark-light cycle. Hygromycin-B was purchased from Sigma. The compound was dissolved in sterile water before application and the solution was injected i.p.
# (§2) The approximate lethal dose of hygromycin B after single i.p. injections was determined according to Deichmann and LeBlanc (1943). […] Two sets of six month old male mice (22-28 g) were used for all acute toxicity experiments. […] Total volume injected was 0.5 ml. The health status and body weights of animals were monitored daily for 10 consecutive days. The lowest dose in the dose response curve at which one mouse died was considered as the approximate lethal dose. […] The animals were checked twice a day. The maximum theoretical time the animals could be dead before necropsy was performed was 12 hrs.
# (§3) The approximate lethal dose (Deichmann and LeBlanc 1943) of hygromycin B in transgenic hyg^R bearing as well as wildtype mice was determined as a measure of the acute toxicity. […] The first dose in the increasing sequence of doses at which the mice died was considered the approximate lethal dose. The health status of animals was monitored for ten consecutive days. Hyg^R transgenic and wildtype mice tolerated a single i.p. injection of hygromycin B without immediate toxic symptoms or distress. The approximate lethal dose of hygromycin B for wildtype mice was […] (Table 1). […] Lethal doses in both hyg^R expressing transgenic and wild type strains caused the same signs of decreased activity which progressed to lethargy and death. The body weight of animals after lethal doses decreased which was less severe at shorter survival duration after hygromycin treatment (Table 1).
# wildtype C57BL/6J mice = experiment: as above; assay type: in vivo, mouse; conditions: for body weight, percentage of the body weight before the experiment / survival: wildtype, 10 days
# Description: as §1, §2, §3
# hyg^R mice [2] = experiment: Biochemical analysis of serum after hygromycin B; assay type: in vivo, mouse; conditions: serum 48 hrs after treatment
# Description: (§4) Serum biochemistry parameters analyzed included blood urea nitrogen ([…]), aspartate amino transferase (AST) and alanine amino transferase (ALT). The analyses were performed at Tufts University Veterinary Medical Diagnosis Laboratory with the chemical analyzer Hitachi 747. Blood was collected from the posterior vena cava of hyg^R mice that were treated with saline, 803 mg/kg and wildtype mice administered 9 mg/kg hygromycin B i.p.
# (§5) Hyg^R mice were treated with the lethal dose of 803 mg/kg hygromycin B and wildtype mice were treated with the lethal dose of 9 mg/kg hygromycin B. As a control, hyg^R mice were also treated with the nontoxic dose of 9 mg/kg. Serum samples taken 48 hrs after treatment were evaluated for the levels of blood urea nitrogen (BUN), aspartate amino transferase (AST) and alanine amino transferase (ALT). Elevated BUN is associated with dehydration and/or renal insufficiency. Elevated activities of ALT and AST are characteristic for liver damage particularly necrosis, cirrhosis and/or hepatitis. Increased AST levels are also characteristic for muscle trauma, myocardial infarction or myositis.
# wildtype mice [3] = experiment: Biochemical analysis of serum after hygromycin B; assay type: in vivo, mouse; conditions: 9 mg/kg single i.p., serum 48 hrs after treatment
# Description: as §4, §5
# hyg^R mice [4] = experiment: Histopathological analysis of mouse tissues after Hygromycin B; assay type: in vivo; conditions: lethal dose 803 mg/kg
# Description: (§6) The organs were prepared as paraffin-embedded glass slides stained with hematoxylin and eosin and evaluated as per the NTP (National Toxicology Program of NIEHS) standards. […] For liver, two cross sections, one of each of the two largest liver lobes were examined. For kidneys, an entire cross section (left longitudinal, right transverse) were evaluated. Lungs had two cross sections (one of each of the two largest lobes). The entire sections on the slides (all fields) were evaluated under blinded conditions for lesions and scored (graded) on a subjective basis compared to control animals. The grades were as follows: 1=minimal, 2=mild, 3=moderate, 4=marked, and 0=no pathological changes. The preparation and evaluation of slides used the NTP criteria and terminology (NIEHS, 1993).
# (§7) Morphological manifestations of hygromycin B tissue specific toxicity in animals treated with lethal doses was assessed by microscopic analysis. Lethal doses of hygromycin B (9 mg/kg) in wildtype animals caused nephrotoxicity typified by tubule eosinophilia, degeneration, and necrosis characterized by cytoplasmic eosinophilia associated with necrosis, loss of tubule cellular and nuclear detail or degeneration, and pyknotic nuclei and fragmentation of cells. These lesions are typical of acute tubular nephrosis. […] The hyg^R mice treated with lethal doses of hygromycin B (803 mg/kg) had liver damage characterized as hepatocellular fatty change, acute inflammation, and hepatocellular necrosis. Liver lesions in the hyg^R transgenic mice were typified by hepatocellular necrosis with nuclear pyknosis and loss of cellular detail, acute infiltration with small foci of neutrophils, and fatty change with hepatocellular intracytoplasmic large distinct clear vacuoles that displaced nuclei. These liver lesions are characteristic of acute liver damage.
# wildtype mice [5] = experiment: as above; assay type: in vivo; conditions: lethal dose 9 mg/kg
# Description: as §6, §7
structure (smiles),measurement,setting,value
"CN[C@H]1C[C@@H](N)[C@H](O)[C@@H](O[C@@H]2O[C@H](CO)[C@H](O)[C@@H]3OC4(O[C@H]23)O[C@H]([C@@H](N)CO)[C@H](O)[C@H](O)[C@H]4O)[C@@H]1O (stereo partly drawn) [hygromycin B, Hygromycin-B]",approximate lethal dose,"[1]; hyg^R animals, single i.p.",535 mg/kg
same,increase of approximate lethal dose over the wildtype strain,[1]; hyg^R vs wildtype,89 fold
same,"body weight, percentage of the body weight before the experiment",[1]; 4 mg/kg single i.p.,102 ± 2%
same,survival,[1]; 4 mg/kg single i.p.,surv (surv. animals survived the 10 days period)
same,"body weight, percentage of the body weight before the experiment",[1]; 6 mg/kg single i.p.,107 ± 4%
same,survival,[1]; 6 mg/kg single i.p.,surv (surv. animals survived the 10 days period)
same,"body weight, percentage of the body weight before the experiment",[1]; 9 mg/kg single i.p.,107 ± 3%
same,survival,[1]; 9 mg/kg single i.p.,surv (surv. animals survived the 10 days period)
same,"body weight, percentage of the body weight before the experiment",[1]; 13.5 mg/kg single i.p.,101 ± 2%
same,survival,[1]; 13.5 mg/kg single i.p.,surv (surv. animals survived the 10 days period)
same,"body weight, percentage of the body weight before the experiment",[1]; 20 mg/kg single i.p.,105 ± 1%
same,survival,[1]; 20 mg/kg single i.p.,surv (surv. animals survived the 10 days period)
same,"body weight, percentage of the body weight before the experiment",[1]; 30 mg/kg single i.p.,105 ± 3%
same,survival,[1]; 30 mg/kg single i.p.,surv (surv. animals survived the 10 days period)
same,"body weight, percentage of the body weight before the experiment",[1]; 46 mg/kg single i.p.,107 ± 5%
same,survival,[1]; 46 mg/kg single i.p.,surv (surv. animals survived the 10 days period)
same,"body weight, percentage of the body weight before the experiment",[1]; 69 mg/kg single i.p.,101 ± 3%
same,survival,[1]; 69 mg/kg single i.p.,surv (surv. animals survived the 10 days period)
same,"body weight, percentage of the body weight before the experiment",[1]; 104 mg/kg single i.p.,103 ± 2%
same,survival,[1]; 104 mg/kg single i.p.,surv (surv. animals survived the 10 days period)
same,"body weight, percentage of the body weight before the experiment",[1]; 155 mg/kg single i.p.,102 ± 2%
same,survival,[1]; 155 mg/kg single i.p.,surv (surv. animals survived the 10 days period)
same,"body weight, percentage of the body weight before the experiment",[1]; 233 mg/kg single i.p.,93 ± 5%
same,survival,[1]; 233 mg/kg single i.p.,surv (surv. animals survived the 10 days period)
same,"body weight, percentage of the body weight before the experiment",[1]; 358 mg/kg single i.p.,99 ± 3%
same,survival,[1]; 358 mg/kg single i.p.,surv (surv. animals survived the 10 days period)
same,"body weight, percentage of the body weight before the experiment",[1]; 535 mg/kg single i.p.,83 ± 5%
same,survival,[1]; 535 mg/kg single i.p.,3 days
same,"body weight, percentage of the body weight before the experiment",[1]; 803 mg/kg single i.p.,89 ± 4%
same,survival,[1]; 803 mg/kg single i.p.,3.5 days
same,"body weight, percentage of the body weight before the experiment",[1]; 1205 mg/kg single i.p.,88 ± 2%
same,survival,[1]; 1205 mg/kg single i.p.,2 days
same,"body weight, percentage of the body weight before the experiment",[1]; 1809 mg/kg single i.p.,97 ± 2%
same,survival,[1]; 1809 mg/kg single i.p.,1 days
same,"body weight, percentage of the body weight before the experiment",[1]; 2709 mg/kg single i.p.,98 ± 1%
same,survival,[1]; 2709 mg/kg single i.p.,1 days
same,approximate lethal dose,"wildtype C57BL/6J mice; wildtype mice, single i.p.",6 mg/kg
same,"body weight, percentage of the body weight before the experiment",wildtype C57BL/6J mice; 2.7 mg/kg single i.p.,107 ± 3%
same,survival,wildtype C57BL/6J mice; 2.7 mg/kg single i.p.,surv (surv. animals survived the 10 days period)
same,"body weight, percentage of the body weight before the experiment",wildtype C57BL/6J mice; 4 mg/kg single i.p.,104 ± 1%
same,survival,wildtype C57BL/6J mice; 4 mg/kg single i.p.,surv (surv. animals survived the 10 days period)
same,"body weight, percentage of the body weight before the experiment",wildtype C57BL/6J mice; 6 mg/kg single i.p.,83 ± 2%
same,survival,wildtype C57BL/6J mice; 6 mg/kg single i.p.,3 days
same,"body weight, percentage of the body weight before the experiment",wildtype C57BL/6J mice; 9 mg/kg single i.p.,91 ± 4%
same,survival,wildtype C57BL/6J mice; 9 mg/kg single i.p.,3 days
same,"body weight, percentage of the body weight before the experiment",wildtype C57BL/6J mice; 13.5 mg/kg single i.p.,86 ± 6%
same,survival,wildtype C57BL/6J mice; 13.5 mg/kg single i.p.,3 days
same,"body weight, percentage of the body weight before the experiment",wildtype C57BL/6J mice; 20 mg/kg single i.p.,83 ± 2%
same,survival,wildtype C57BL/6J mice; 20 mg/kg single i.p.,3 days
same,"body weight, percentage of the body weight before the experiment",wildtype C57BL/6J mice; 30 mg/kg single i.p.,82 ± 2%
same,survival,wildtype C57BL/6J mice; 30 mg/kg single i.p.,3 days
same,ALT,hyg^R mice [2]; 9 mg/kg single i.p.,28.7 ± 15.1 u/l
same,AST,hyg^R mice [2]; 9 mg/kg single i.p.,43.0 ± 5.2 u/l
same,BUN,hyg^R mice [2]; 9 mg/kg single i.p.,24.0 ± 4 mg/dL
same,ALT,hyg^R mice [2]; 803 mg/kg single i.p.,108 ± 66.3 u/l
same,AST,hyg^R mice [2]; 803 mg/kg single i.p.,102.0 ± 12.7 u/l
same,BUN,hyg^R mice [2]; 803 mg/kg single i.p.,102 ± 55.1 mg/dL
same,ALT,wildtype mice [3],108 ± 61.5 u/l
same,AST,wildtype mice [3],135 ± 29.7 u/l
same,BUN,wildtype mice [3],97.7 ± 5.5 mg/dL
same,"Kidney Tubule degeneration, lesion severity grade",hyg^R mice [4],0
same,"Kidney Tubule eosinophilia, lesion severity grade",hyg^R mice [4],0
same,"Kidney Tubule necrosis, lesion severity grade",hyg^R mice [4],0
same,"Liver Acute inflamation, lesion severity grade",hyg^R mice [4],0.8 ± 1.0
same,"Liver Fatty change, lesion severity grade",hyg^R mice [4],0.6 ± 0.8
same,"Liver Necrosis, lesion severity grade",hyg^R mice [4],2.2 ± 0.4
same,"Kidney Tubule degeneration, lesion severity grade",wildtype mice [5],2.2 ± 0.4
same,"Kidney Tubule eosinophilia, lesion severity grade",wildtype mice [5],1.0 ± 1.2
same,"Kidney Tubule necrosis, lesion severity grade",wildtype mice [5],1.2 ± 1.1
same,"Liver Acute inflamation, lesion severity grade",wildtype mice [5],0
same,"Liver Fatty change, lesion severity grade",wildtype mice [5],0
same,"Liver Necrosis, lesion severity grade",wildtype mice [5],0
